In patent US20100216703A1, “Inhibitors of PDE4 and Methods of Use” (THE REGENTS OF THE UNIVERSITY OF CALIFORNIA, priority 2006, published 2010):
“Also recorded” adds a separate entry of the source.

Key:
[1] = test system: sciatic nerve crush injury; experiment: Sciatic nerve crush injury; format: in vivo, mouse; settings: wt nerves 8 days after crush; rolipram 1 mg/kg once daily for 8 d
Protocol: Animals, sciatic nerve crush, and induction of lung fibrosis p75NTR−/− mice (Lee et al., 1992) and tPA−/− mice (Carmeliet et al., 1994) were in C57B1/6 background and purchased from The Jackson Laboratory. Double p75NTR−/−tPA−/− mice were generated by crossing p75NTR−/− mice with tPA−/− mice. C57B1/6J mice were used as controls. Sciatic nerve crush was performed as described previously (Akassoglou et al., 2000). Lung fibrosis was induced as described previously (Chen et al., 2004). For the rolipram treatments, mice were administered 5 mg/kg rolipram (Calbiochem) before the LPS injection as described previously (Miotla et al., 1998). Mice were killed 4.5 h after LPS or saline administration. For rolipram treatment after sciatic nerve injury, mice were injected with rolipram (1 mg/kg) once daily for 8 d until tissue was harvested and processed for immunostaining. Immunohistochemistry was performed as described in Akassoglou et al. (2002). Primary antibodies were sheep anti-human fibrin(ogen) (1:200; US Biologicals), rabbit anti-human tPA ( 1/300; Molecular Innovations), rabbit anti-p75NTR clone 9651, (1:1,000), goat anti-p75NTR ( 1/200; Santa Cruz Biotechnology, Inc.), rabbit anti-mouse PAI-1 (1:500; a gift from David Loskutoff, Scripps Research Institute, La Jolla, Calif.), and mouse anti-S100 (1:200; Neomarkers). […]

CGNs = experiment: Intracellular cAMP in cerebellar granule neurons; format: cell-based, mouse
Excerpt: Murine SCs were isolated as described previously (Syroid et al., 2000). NIH3T3 or HEK293 cells were cotransfected either with p75NTR FL, ICD or deletion constructs, and PDE4A5 cDNAs using Lipofectamine 2000 (Invitrogen) as described in the Results section. CGNs were isolated from P10 animals (Yamashita and Tohyama, 2003). CGNs were lysed immediately for co-IP, without plating. siRNA directed against p75NTR (Dharmacon; SMART Pool reagent, Cat. M-080041-00; Cat. M-009340) was transfected into SCs and NIH3T3p75NTR cells using Dharmafect (Dharmacon).
(§1) […] fibroblasts or 500,000 SCs were lysed in 0.1 N HCl solution and cAMP was measured using a competitive binding cAMP ELISA (Assay Designs). Cells were treated with 100 ng/ml PTX for 16 h. […] Cells were treated with forskolin in the presence of the inhibitors for 1 h. […] For the qualitative and quantitative PKA assay (Promega), cells were treated with 10 μM forskolin for 30 min, lysed in 1% NP-40 buffer with 150 mM NaCl, 50 mM Tris, and 1 mM EGTA, and protein concentration was determined using the Bradford Assay (Bio-Rad Laboratories). 1 μg was loaded into the PKA assay reaction mix according to the manufacturer's protocol (Promega).

spinal cord injury = settings: Nikulina et al., 2004, Pearse et al.; cited from earlier work
PDE4 = settings: cited from earlier work
[2] = test system: LPS-induced lung fibrosis; experiment: LPS-induced lung fibrosis / acute lung injury; format: in vivo, mouse
Protocol: Animals, sciatic nerve crush, and induction of lung fibrosis p75NTR−/− mice (Lee et al., 1992) and tPA−/− mice (Carmeliet et al., 1994) were in C57B1/6 background and purchased from The Jackson Laboratory. Double p75NTR−/−tPA−/− mice were generated by crossing p75NTR−/− mice with tPA−/− mice. C57B1/6J mice were used as controls. Sciatic nerve crush was performed as described previously (Akassoglou et al., 2000). Lung fibrosis was induced as described previously (Chen et al., 2004). For the rolipram treatments, mice were administered 5 mg/kg rolipram (Calbiochem) before the LPS injection as described previously (Miotla et al., 1998). Mice were killed 4.5 h after LPS or saline administration. For rolipram treatment after sciatic nerve injury, mice were injected with rolipram (1 mg/kg) once daily for 8 d until tissue was harvested and processed for immunostaining. Immunohistochemistry was performed as described in Akassoglou et al. (2002). Primary antibodies were sheep anti-human fibrin(ogen) (1:200; US Biologicals), rabbit anti-human tPA ( 1/300; Molecular Innovations), rabbit anti-p75NTR clone 9651, (1:1,000), goat anti-p75NTR ( 1/200; Santa Cruz Biotechnology, Inc.), rabbit anti-mouse PAI-1 (1:500; a gift from David Loskutoff, Scripps Research Institute, La Jolla, Calif.), and mouse anti-S100 (1:200; Neomarkers). For immunofluorescence, secondary antibodies were anti-rabbit FITC and anti-goat Cy3 (1:200; Jackson Immunochemicals). Images were acquired with an Axioplan II epifluorescence microscope (Carl Zeiss Microlmaging, Inc.) using dry Plan-Neofluar lenses using 10×0.3 NA, 20×0.5 NA, or 40×0.75 NA objectives equipped with Axiocam HRc digital camera and the Axiovision image analysis system. Immunoblot was performed as described previously (Akassoglou et al., 2002). Antibodies used were rabbit anti-p75NTR clones 9992 and 9651 (1:5,000), mouse anti-fibrin (1:500; Accurate Chemical & Scientific Corp.), rabbit anti-myosin (1:1,000; Sigma-Aldrich), rabbit anti-GAPDH (1:5,000; Abcam) and rabbit anti-PAI-1 (1:5,000; a gift of David Loskutoff). Quantification was performed on the Scion NIH Imaging Software. Fibrin precipitation and quantification from lung tissues was performed exactly as described previously (Ling et al., 2004). RT-PCR was performed as described previously (Akassoglou et al., 2002). Primers for tPA, uPA, and PAI-1 genes were used as described previously (Yamamoto and Loskutoff, 1996). Real-time PCR was performed using the Opticon DNA Engine 2 (MJ Research) and the Quantitect SYBR Green PCR kit (QIAGEN). Results were analyzed with Opticon 2 software using the comparative Ct method as described previously (Livak and Schmittgen, 2001). Data were expressed as ΔΔCt for the tPA gene normalized against GAPDH.

NIH3T3p75NTR cells [3] = experiment: Competitive binding cAMP ELISA; format: cell-based; settings: 16 h; PTX 100 ng/ml, IBMX 500 μM, PDE1 inh. 18.7 μM, EHNA 80 μM, trequinsin 100 nM, rolipram 10 μM, PDE5 inh. 23 μM
Protocol: as §1

NIH3T3p75NTR cells [4] = experiment: Quantification of tPA activity; format: cell-based; settings: 10 μM forskolin 16 h; 200 nM KT5720; IBMX; rolipram
Protocol: Quantification of tPA and uPA activity in SC and fibroblast in lysates and supernatants was performed according to the directions of the activity assay kits from American Diagnostica and Chemicon, respectively. To elevate cAMP cells were treated either with 2 mM db-cAMP (Sigma-Aldrich) or with 10 μM forskolin (Sigma-Aldrich) for 16 h. To block PKA activity, cells were treated with 200 nM KT5720 (Calbiochem).

Primary CGNs = experiment: Myelin inhibition of neurite outgrowth; format: cell-based, mouse; settings: 24 hrs, myelin 1 μg/well, poly-D-lysine

Compound | fibrin deposition in the sciatic nerve [1] | intracellular cAMP in p75NTR−/− CGNs (CGNs; p75NTR−/− cells) | intracellular cAMP in wild-type CGNs (CGNs; wild-type cells) | axonal regeneration and functional recovery (spinal cord injury) | PDE4 isoform selectivity (PDE4; background statement) | IC50 (PDE4) [nM] | fibrin deposition in the lung ([2]; 5 mg/kg rolipram before LPS, vs LPS alone) | decrease in fibrin, rolipram vs. control treated wt lungs ([2]; 5 mg/kg rolipram before LPS, killed 4.5 h after LPS) [%] | PAI-1 in the lung after LPS (quantitative PCR of transcripts) ([2]; LPS + rolipram) | PAI-1 transcripts in the lung, rolipram treatment alone ([2]; no LPS) | intracellular cAMP levels in NIH3T3p75NTR cells (NIH3T3p75NTR cells [3]) | tPA activity in NIH3T3p75NTR cells (NIH3T3p75NTR cells [4]) | myelin inhibition of neurite outgrowth (Primary CGNs)
COc1ccc(C2CNC(=O)C2)cc1OC1CCCC1 (stereo not shown) [rolipram] | decreased levels of fibrin deposition; also recorded: statistically significant reduction of fibrin deposition; also recorded: reduces fibrin deposition; also recorded: decreases fibrin deposition | no significant increase | four-fold increase in intracellular cAMP | […] | […] | […] | decreased in the lung; also recorded: reduces fibrin deposition; also recorded: decreases fibrin deposition | 34 | reduction of LPS-induced PAI-1 upregulation; also recorded: decreases PAI-1 | no effect | increase intracellular levels of cAMP; also recorded: increase levels of cAMP in NIH3T3p75NTR cells to the levels of NIH3T3 cells; also recorded: significantly increases cAMP levels | increase of tPA levels | –
YGRKKRRQRRRSPLDSQASPGLVLHAGATTSQRRES (listed as Homo sapiens) [peptide 25] | – | – | – | – | – | – | – | – | – | – | – | – | did not overcome myelin inhibition of neurite outgrowth
